Measurements as given in patent publication US4966914A, “Oculoselective beta-blockers as antiglaucoma agents” (E. I. Du Pont de Nemours and Company, priority 1988, dated 1990).
Read-outs that look alike come from different tables or passages of the source.

Experiments:
[1] = tested on: beta-blocking effects; assay: In vivo beta-blocking potency and duration of action (DOA); conditions: for DOA (duration of action): Tables 2 and 4
Protocol: (§1) The in vitro potency (pA2), in vivo potency and duration of action (DOA) of the compounds of the present invention are recorded in Tables 2 to 4. These pharmacological activities were determined using the methods described in U.S. patent 4,582,855 issued Apr.

[2] = molecular target: T1, ATRIA (Cavia porcellus, UniProt H0W3H1); assay: In vitro potency (pA2), beta-blocking, atria; assay type: cell-based
T1 construct: ATRIA; from tissue
Protocol: as §1

[3] = Tables 2 and 4, read-out: In-vitro potency pA2 (converted)
[4] = Table 3, atria, read-out: pA2 ATRIA (converted)

T1 sequence (H0W3H1 1-470): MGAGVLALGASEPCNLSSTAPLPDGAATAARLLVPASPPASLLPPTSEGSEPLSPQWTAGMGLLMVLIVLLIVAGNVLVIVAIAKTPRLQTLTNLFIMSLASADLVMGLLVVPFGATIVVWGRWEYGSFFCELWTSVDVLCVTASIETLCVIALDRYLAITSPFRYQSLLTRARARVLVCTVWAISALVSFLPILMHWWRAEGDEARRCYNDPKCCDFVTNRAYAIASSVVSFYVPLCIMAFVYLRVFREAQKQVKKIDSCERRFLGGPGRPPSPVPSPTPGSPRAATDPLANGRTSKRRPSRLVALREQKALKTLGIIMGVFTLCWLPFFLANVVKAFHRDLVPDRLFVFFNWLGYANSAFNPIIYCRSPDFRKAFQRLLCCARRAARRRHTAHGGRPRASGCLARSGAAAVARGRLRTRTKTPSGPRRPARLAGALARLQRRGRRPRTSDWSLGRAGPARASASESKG

Compound	Kb [2, 4]	further results
Cc1cc(O)c(O)cc1C(=O)OCC(O)CNC(C)(C)CNC(=O)C(C)C (stereo not shown)	–	DOA (duration of action) [1]: 42 min; Kb [2, 3]: 6.31 nM
Cc1cc(O)c(O)cc1C(=O)OCC(O)CNC(C)(C)CNC(=O)C1CCCCC1 (stereo not shown)	–	DOA (duration of action), second value after the slash ([1]; Table 2, cell prints 31/>60): > 60 min; DOA (duration of action) [1]: 31 min; Kb [2, 3]: 3.98 nM
Cc1cc(O)c(O)cc1C(=O)OCC(O)CNC(C)(C)CNC(=O)N1CCOCC1 (stereo not shown)	–	DOA (duration of action) [1]: 60 min; Kb [2, 3]: 2 nM
Cc1cc(O)c(O)cc1C(=O)OCC(O)CNC(C)(C)CNC(=O)C1CCOCC1 (stereo not shown)	–	DOA (duration of action) [1]: 26 min; Kb [2, 3]: 5.01 nM
CC(C)(CNC(=O)C1CCOC1)NCC(O)COC(=O)c1ccc(O)c(O)c1 (stereo not shown)	1.26 nM	–
CC(C)C(=O)NCC(C)(C)NCC(O)COC(=O)c1cc(O)c(O)cc1N (stereo not shown)	79.4 nM	–
COc1cc(O)c(O)cc1C(=O)OCC(O)CNC(C)(C)CNC(=O)C1CCCCC1 (stereo not shown)	25.1 nM	–
Cc1cc(O)c(O)cc1C(=O)OCC(O)CNC(C)(C)CNC(=O)C1CC1 (stereo not shown)	20 nM	–
Cc1cc(O)c(O)cc1C(=O)OCC(O)CNC(C)(C)CNC(=O)C1CCC1 (stereo not shown)	5.01 nM	–

Second part, led by results:

Kb [2, 4]	Compound	further results
10 nM	CCC(=O)NCC(C)(C)NCC(O)COC(=O)c1cc(O)c(O)cc1C (stereo not shown)	–
6.31 nM	CCCC(=O)NCC(C)(C)NCC(O)COC(=O)c1cc(O)c(O)cc1C (stereo not shown)	–
20 nM	Cc1cc(O)c(O)cc1C(=O)OCC(O)CNC(C)(C)CNC(=O)c1ccccc1 (stereo not shown)	–
100 nM	Cc1cc(O)c(O)cc1C(=O)OCC(O)CNC(C)(C)CNC(=O)Cc1ccccc1 (stereo not shown)	–
398 nM	COc1ccccc1C(=O)NCC(C)(C)NCC(O)COC(=O)c1cc(O)c(O)cc1C (stereo not shown)	–
